From patent US12213993B2, “Coated medicinal clay compositions, pharmaceutical compositions, and delivery of cation sources and methods of use thereof” (priority 2021, dated 2025)

Key:
[1] = ion pair with chloride; cited from earlier work
[2] = Calculation of chloride binding by cations of clay/silver wound dressing in wound exudate; type: physicochemical; settings: without the chelation of chloride provided by the medicinal clay
From the text: Medicinal clay in a pharmaceutical composition was applied to an exemplary wound dressing, which incorporated an additional therapeutic cation, silver. Wound exudate is known to contain anions, which can interfere with the medicinal qualities of the medicinal clay and additional therapeutic agents when the medicinal clay comes into contact with the moisture of the wound exudate (a water source). Wound exudate is variable patient to patient, so an average amount of 101 mEq/L chloride anions was used. The medicinal clay of Example 1 was analyzed for cations, which may interact with the chloride in wound exudate. Table 5 describes an approximate amount of ions present the exemplary clay composition of the wound dressing (4×4 inch pad), silver added into the wound dressing for delivery with the clay, and wound exudate, as well as the amount of each in the exemplary wound dressing and wound exudate (grams). […] A skilled artisan will appreciate from the disclosure of the calculations that such a minimum effective amount can vary based on an exudate sample. Accordingly, the calculated atoms and weight (g) in Table 5 can have a variation of about ±30%, ±25%, ±20%, ±15%, or ±10%. The exemplary wound dressings comprise from about 0.1 to about 2.5 grams of the clay composition, preferably from about 0.2 to about 0.8 grams of the clay composition. […]

SMILES | Lattice Energy [1] [kcal/mol] | silver in the dressing that chloride could bind prior to release [2] [%]
[Cl][Ag] [AgCl] | 187 | –
[Cl][Al]([Cl])[Cl] [AlCl3] | 1228 | –
[Ca+2].[Cl-].[Cl-] [CaCl2] | 542.1 | –
[Cl][Fe][Cl] [FeCl2] | 614 | –
[Cl][Fe]([Cl])[Cl] [FeCl3] | 1282 | –
[Cl-].[K+] [KCl] | 168 | –
[Cl-].[Cl-].[Mg+2] [MgCl2] | 592 | –
[Cl][Mn][Cl] [MnCl2] | 599.9 | –
[Cl-].[Na+] [NaCl] | 184 | –
[Ag+] [silver] | – | 72
